Data reported in patent publication US20090258069A1, “Delivery of LFA-1 antagonists to the gastrointestinal system” (priority 2008, published 2009).
Like-named read-outs stand apart in the source and are kept apart here.

Key:
[1] = system: human mononuclear cells (PBMC) stimulated with staphylococcal enterotoxin B (SEB); assay: cells; type: cell-based
LFA-1 = biological target: T1, LFA-1 (Homo sapiens, UniProt P20701); conditions: at greater than 90% occupancy of LFA-1; cited from earlier work
T1 construct: greater than 90% occupancy of LFA-1 with efalizumab led to a greater than 50% clinical improvement in PASI score in a clinical trial; host or cells: leukocytes of psoriasis patients (in vivo)
T1 sequence (P20701 26-1170): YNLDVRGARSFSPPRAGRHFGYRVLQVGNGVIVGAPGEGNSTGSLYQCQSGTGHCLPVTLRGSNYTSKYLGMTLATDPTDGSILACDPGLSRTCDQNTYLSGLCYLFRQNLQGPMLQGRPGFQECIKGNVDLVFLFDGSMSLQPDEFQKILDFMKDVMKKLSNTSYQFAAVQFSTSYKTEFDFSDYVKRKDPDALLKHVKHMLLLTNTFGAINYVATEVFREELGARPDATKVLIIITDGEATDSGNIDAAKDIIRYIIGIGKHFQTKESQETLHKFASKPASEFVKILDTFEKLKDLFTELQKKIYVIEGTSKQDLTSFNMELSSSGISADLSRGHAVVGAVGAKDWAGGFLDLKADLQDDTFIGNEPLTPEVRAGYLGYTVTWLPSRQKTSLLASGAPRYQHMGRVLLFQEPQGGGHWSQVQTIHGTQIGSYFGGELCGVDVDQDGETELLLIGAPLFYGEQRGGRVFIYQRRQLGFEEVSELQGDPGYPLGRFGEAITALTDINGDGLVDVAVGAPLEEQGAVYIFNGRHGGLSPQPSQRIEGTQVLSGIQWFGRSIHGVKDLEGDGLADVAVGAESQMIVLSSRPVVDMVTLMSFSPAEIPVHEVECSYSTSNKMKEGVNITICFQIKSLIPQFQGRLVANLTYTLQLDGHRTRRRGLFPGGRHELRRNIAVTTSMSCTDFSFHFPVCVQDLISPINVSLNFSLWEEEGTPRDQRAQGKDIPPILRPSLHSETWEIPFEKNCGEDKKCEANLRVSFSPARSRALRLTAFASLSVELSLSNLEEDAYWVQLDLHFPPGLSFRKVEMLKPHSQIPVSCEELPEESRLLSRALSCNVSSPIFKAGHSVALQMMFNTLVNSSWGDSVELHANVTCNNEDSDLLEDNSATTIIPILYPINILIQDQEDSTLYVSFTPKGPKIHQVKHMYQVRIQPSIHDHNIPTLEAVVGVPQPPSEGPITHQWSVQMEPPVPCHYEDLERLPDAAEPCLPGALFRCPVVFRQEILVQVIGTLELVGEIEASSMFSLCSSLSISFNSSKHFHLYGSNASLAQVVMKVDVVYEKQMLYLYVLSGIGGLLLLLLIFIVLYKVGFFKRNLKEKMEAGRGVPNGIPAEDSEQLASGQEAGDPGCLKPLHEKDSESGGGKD
T1 sequence (P05107 23-769 partner): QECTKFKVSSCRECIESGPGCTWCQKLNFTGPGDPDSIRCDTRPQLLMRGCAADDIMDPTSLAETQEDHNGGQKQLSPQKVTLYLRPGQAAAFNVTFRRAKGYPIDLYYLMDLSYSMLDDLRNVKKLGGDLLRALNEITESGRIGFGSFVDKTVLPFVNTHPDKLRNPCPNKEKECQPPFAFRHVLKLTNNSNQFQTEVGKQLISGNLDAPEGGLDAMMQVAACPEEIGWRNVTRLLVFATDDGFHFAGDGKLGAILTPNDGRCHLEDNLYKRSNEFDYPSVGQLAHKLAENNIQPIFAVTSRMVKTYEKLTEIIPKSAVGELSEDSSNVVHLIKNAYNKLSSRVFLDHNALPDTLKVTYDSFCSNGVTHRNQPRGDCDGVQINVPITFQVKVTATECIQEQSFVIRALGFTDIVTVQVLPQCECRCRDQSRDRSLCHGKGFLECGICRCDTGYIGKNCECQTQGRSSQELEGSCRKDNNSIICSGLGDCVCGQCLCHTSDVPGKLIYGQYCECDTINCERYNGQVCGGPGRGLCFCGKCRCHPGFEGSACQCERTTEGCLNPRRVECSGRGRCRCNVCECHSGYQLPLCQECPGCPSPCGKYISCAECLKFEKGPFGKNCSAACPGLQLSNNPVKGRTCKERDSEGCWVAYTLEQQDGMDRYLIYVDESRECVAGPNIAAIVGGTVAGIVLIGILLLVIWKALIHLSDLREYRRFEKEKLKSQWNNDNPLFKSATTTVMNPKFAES

O=C(NC(Cc1cc(=O)[nH]c2ccccc12)C(=O)O)c1ccc(Cl)cc1 (centres unmarked) [Rebamipide, reference compound]
EC50 ([1]; read-out: EC50 Cytokine Release GM-CSF): > 1000 µM | EC50 ([1]; read-out: EC50 Cytokine Release IFNγ): > 1000 µM | EC50 ([1]; read-out: EC50 Cytokine Release IL-1α): > 1000 µM | EC50 ([1]; read-out: EC50 Cytokine Release IL-1β): > 1000 µM | EC50 ([1]; read-out: EC50 Cytokine Release IL-2): > 1000 µM | EC50 ([1]; read-out: EC50 Cytokine Release IL-3): > 1000 µM | EC50 ([1]; read-out: EC50 Cytokine Release IL-4): > 1000 µM | EC50 ([1]; read-out: EC50 Cytokine Release IL-5): > 1000 µM | EC50 ([1]; read-out: EC50 Cytokine Release IL-6): > 1000 µM | EC50 ([1]; read-out: EC50 Cytokine Release IL-10): > 1000 µM | EC50 ([1]; read-out: EC50 Cytokine Release IL-12p40): > 1000 µM | EC50 ([1]; read-out: EC50 Cytokine Release IL-13): > 1000 µM | EC50 ([1]; read-out: EC50 Cytokine Release IP-10): > 1000 µM | EC50 ([1]; read-out: EC50 Cytokine Release MCP-1): > 1000 µM | EC50 ([1]; read-out: EC50 Cytokine Release MIP-1α): > 1000 µM | EC50 ([1]; read-out: EC50 Cytokine Release TNF-α): > 1000 µM

efalizumab: antibody binding LFA-1, clinical trial in plaque psoriasis
clinical improvement in PASI score (LFA-1): greater than 50%
